Reference: ChEMBL document CHEMBL1139400, “Thiadiazolopiperazinyl ureas as inhibitors of fatty acid amide hydrolase” (Bioorg Med Chem Lett, 2008)
pIC50: −log10 of the molar value.

What follows are molecules tested against T1, Fatty-acid amide hydrolase 1 (Rattus norvegicus, UniProt P97612) (assay: Inhibition of rat FAAH preincubated for 10 mins).
T1 sequence (P97612 whole entry): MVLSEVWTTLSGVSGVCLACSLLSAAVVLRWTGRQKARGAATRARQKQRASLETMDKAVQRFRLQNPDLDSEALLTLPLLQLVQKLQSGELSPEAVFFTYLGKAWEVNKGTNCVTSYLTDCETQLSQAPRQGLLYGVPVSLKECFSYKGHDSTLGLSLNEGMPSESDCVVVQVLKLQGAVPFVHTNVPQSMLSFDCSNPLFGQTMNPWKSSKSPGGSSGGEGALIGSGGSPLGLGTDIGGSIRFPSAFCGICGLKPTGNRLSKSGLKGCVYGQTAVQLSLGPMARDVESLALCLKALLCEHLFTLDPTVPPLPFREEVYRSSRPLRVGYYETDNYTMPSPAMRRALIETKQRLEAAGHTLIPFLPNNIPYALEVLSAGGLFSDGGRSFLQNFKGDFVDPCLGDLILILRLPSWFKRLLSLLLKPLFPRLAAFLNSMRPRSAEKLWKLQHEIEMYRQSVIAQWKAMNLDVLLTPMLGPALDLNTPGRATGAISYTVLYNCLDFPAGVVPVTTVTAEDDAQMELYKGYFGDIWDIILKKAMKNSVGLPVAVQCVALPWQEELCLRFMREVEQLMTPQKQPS

| pIC50 | Structure (SMILES) |
| --- | --- |
| 7.24 | O=C(Nc1ncccn1)N1CCN(c2nc(-c3ccccc3)ns2)CC1 |
| 6.90 | O=C(Nc1ccn[nH]1)N1CCN(c2nc(-c3ccccc3)ns2)CC1 |

Continued, molecule first:

| Structure (SMILES) | pIC50 |
| --- | --- |
| O=C(Nc1ccc(Cl)nn1)N1CCN(c2nc(-c3ccccc3)ns2)CC1 | 7.27 |
| O=C(Nc1nnn[nH]1)N1CCN(c2nc(-c3ccccc3)ns2)CC1 | 7.39 |
| O=C(Nc1nc(-c2ccccc2)cs1)N1CCN(c2nc(-c3ccccc3)ns2)CC1 | 6.95 |

What follows are molecules tested against T2, Fatty-acid amide hydrolase 1 (Homo sapiens, UniProt O00519) (assay: Inhibition of human FAAH preincubated for 10 mins).
T2 sequence (O00519 whole entry): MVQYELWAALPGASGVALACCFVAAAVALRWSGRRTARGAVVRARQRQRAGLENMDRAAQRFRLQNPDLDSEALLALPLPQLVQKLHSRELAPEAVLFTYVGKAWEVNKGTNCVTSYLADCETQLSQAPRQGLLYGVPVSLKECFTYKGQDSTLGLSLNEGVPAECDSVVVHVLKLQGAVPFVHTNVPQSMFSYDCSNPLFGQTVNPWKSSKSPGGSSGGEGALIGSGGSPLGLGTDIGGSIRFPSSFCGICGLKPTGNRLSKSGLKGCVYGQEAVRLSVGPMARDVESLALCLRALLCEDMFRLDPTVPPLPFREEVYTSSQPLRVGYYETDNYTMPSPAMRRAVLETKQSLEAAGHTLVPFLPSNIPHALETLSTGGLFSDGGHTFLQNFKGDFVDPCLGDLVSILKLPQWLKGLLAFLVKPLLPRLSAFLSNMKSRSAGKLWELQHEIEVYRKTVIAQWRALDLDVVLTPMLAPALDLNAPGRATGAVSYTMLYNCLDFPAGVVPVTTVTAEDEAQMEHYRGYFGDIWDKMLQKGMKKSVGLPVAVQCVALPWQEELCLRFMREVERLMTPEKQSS

| pIC50 | Structure (SMILES) |
| --- | --- |
| 6.58 | O=C(Nc1ncccn1)N1CCN(c2nc(-c3ccccc3)ns2)CC1 |
| 5.93 | O=C(Nc1ccn[nH]1)N1CCN(c2nc(-c3ccccc3)ns2)CC1 |

Continued, molecule first:

| Structure (SMILES) | pIC50 |
| --- | --- |
| O=C(Nc1ccc(Cl)nn1)N1CCN(c2nc(-c3ccccc3)ns2)CC1 | 7.30 |
| O=C(Nc1nnn[nH]1)N1CCN(c2nc(-c3ccccc3)ns2)CC1 | 6.49 |
| O=C(Nc1nc(-c2ccccc2)cs1)N1CCN(c2nc(-c3ccccc3)ns2)CC1 | 6.49 |
